The source of these data is patent US20240027479A1, “A Comprehensive Breath Test that Confirms Recent Use of Inhaled Cannabis within the Impairment Window” (RCU Labs, Inc., priority 2018, published 2024).

Where “and” joins values, the source holds several entries; their conditions need not be identical. Equal values may be shown once. Read-outs that look alike come from different tables or passages of the source.

Data set [1] is described as follows: Cannabinoids and Δ^9-THC metabolites in capillary blood (LC-HRMS). Conditions: pre-smoking. The text has this:
The complex nature of cannabinoid pharmacokinetics and pharmacodynamics calls for a new approach for effectively determining recent use of cannabis within the impairment window. We sought to develop a multiple-parameter test based on pharmacological changes in Δ^9-THC and its metabolites in blood over time. This approach requires the collection of two samples separated by a known time interval, which is a critical difference compared to current blood testing methods that rely on the collection of a single sample. The two-sample strategy makes possible the detection of Δ^9-THC in its distribution phase where the half-life is very short [Moeller M R. et al., J Forensic Sci 37:969-83 (1992); Wall M E. et al., Clin Pharmacol Ther 34:352-63 (1983)], which occurs only within the first few hours after smoking, and for the evaluation of how Δ^9-THC metabolite levels in blood are changing with time relative to Δ^9-THC. A liquid chromatography high-resolution mass spectrometry (LC-HRMS) bioanalytical method for the quantification of cannabinoids in microsamples (50 μL) of whole blood was developed and validated for this purpose [DeGregorio M W. et al., J AOAC Int 103:725-35 (2020)].
A total of 92 subjects were included in clinical trials designed to evaluate the feasibility of the described method for determining recent cannabis use (blood-based study in 48 subjects) and recent cannabis use and impairment (breath- and blood-based study in 44 subjects). Each subject was given a single cannabis cigarette and instructed to smoke as much of it as possible within a 10-minute period. Cigarettes containing 500 mg of dried cannabis flower were prepared immediately before each smoking session. During the studies, subjects were given a variety of cannabis chemovars to smoke, with Δ^9-THC content ranging from a low of 8.5% to a high of 28.4%. A wide variety of chemovars was included to account for the variability in Δ^9-THC potencies available in numerous cannabis retail establishments in the various U.S. states where recreational and/or medicinal cannabis has been legalized. Capillary blood samples ([…] collected at various time points prior to smoking and up to 200 minutes after smoking, were obtained from a total of 92 subjects using a variety of methods including lancets and two types of automated blood collection devices. Exhaled breath samples were collected from a total of 44 subjects at various time points prior to smoking and up to 240 minutes post-smoking. Breath samples were collected using devices equipped with electrostatic polymer filters and that are designed to collect approximately 20 L of exhaled breath through normal breathing. The time required for breath sample collection was approximately 2-3 minutes. A total of 74 subjects were asked to self-assess their level of impairment before smoking and at each designated sampling time point after smoking based on a scale ranging from 0 (not impaired) to 10 (very impaired) as shown in FIG. 2. As a physical indicator of impairment, 44 subjects were evaluated for horizontal gaze nystagmus.
One of the first endpoints investigated during clinical development of the recent use test method was whether there is any relationship between blood Δ^9-THC levels and impairment. Prior to smoking, Δ^9-THC blood concentrations were evaluated in a group of 30 subjects before and up to 200 minutes after smoking a 500-mg cannabis cigarette and compared to a common legal limit (5 ng/mL) for establishing driver impairment due to cannabis.

The nature of data set [2]: Presence of cannabinoids in exhaled breath before and after smoking (LC-HRMS). It counts as in vivo, human. Here is the method: (§1) The positive recent use test results outside of the three-hour impairment window based on blood sampling alone led to the incorporation of a second testing matrix, exhaled breath, to strengthen the results of the test method so that cannabis users who are within the impairment window after smoking can be more accurately identified. For this purpose, a total of 44 additional subjects were evaluated in a smoking study in which both exhaled breath and blood samples were collected and then analyzed by LC-HRMS for cannabinoids and Δ^9-THC metabolites. As with the 48-subject blood-based study, subjects were given a 500-mg cannabis cigarette to smoke, and breath and blood samples were collected at various time points before and after smoking.

Data set [3] in a line: Cannabinoid half-lives in exhaled breath, multi-point breath sampling. In kind it is in vivo, human. The settings on record: for Cannabinoid Half-Lives (min) in breath, back-to-back sampling: individual subject; for half-life: human, exhaled breath, inhaled, 500 mg. On the procedure: as §1
These included the presence of CBN, CBC, CBG, Δ^9-THCV, and CBGA, and short half-lives (<60 minutes) for Δ^9-THC, CBN, CBC, CBG, and Δ^9-THCV (see Table 5 below). […] Pre-smoking, half-lives were calculable for Δ^9-THC in only three subjects.
Evidence of recent cannabis use by inhalation through smoking or vaping dissipates rapidly in exhaled breath, and thus allowing 20 minutes between breath samplings, which was employed in the blood-based study and for most of the subjects in the blood and breath-based study, may result in the loss of valuable data. In the last nine subjects involved in the exhaled breath study, a back-to-back sample collection strategy was employed whereby two exhaled breath samples were collected in quick succession at 20 and 40 minutes post-smoking. Approximately two minutes elapsed between the collection of each sample. The very short half-lives observed for Δ^9-THC, CBN, and other cannabinoids (approximately five minutes or less) in exhaled breath would allow for rapid sampling (see Table 6 below).

Data set [4] is described as follows: Stability of target analytes in the breath collection device. In kind it is physicochemical. An excerpt:
In particular, CBN, CBG, and Δ^9-THCV all have a much greater incidence in breath during peak impairment (the first hour after smoking) compared to pre-smoking. […] Stability of the analytes within the breath collection devices was previously established (see Table 4 below).

A short description of data set [5]: Breath/blood Δ^9-THC ratio. The settings on record: all 44 subjects. An excerpt:
We hypothesized that the incorporation of both exhaled breath and blood into a comprehensive recent cannabis use test would confirm recent use of inhaled cannabis within the impairment window, improving the accuracy of the two-point breath testing method. For this purpose, blood samples were collected from the 44 subjects in addition to breath samples and analyzed for Δ^9-THC and other cannabinoids. […] This ratio was computed by dividing the Δ^9-THC peak area ratio to the internal standard in breath by the corresponding peak area ratio in blood.

For data set [6] the following is noted: separate 20-subject and 23-subject studies (Lynch; Olla); cited from earlier work.
[7] abbreviates: Day 3, breath collection device.
[8] abbreviates: Day 7, breath collection device.
Where [9] appears, read: Day 10, breath collection device.
[10] abbreviates: Day 14, breath collection device.
Setting [11] is: Day 30, breath collection device.

For the compound `CCCCCc1cc(O)c2c(c1)OC(C)(C)[C@@H]1CCC(C)=C[C@@H]21` [Δ^9-THC, Δ^9-tetrahydrocannabinol], the “detection in subjects' blood samples at baseline prior to smoking” value in data set [1] is “detected”. In addition, the “average baseline Δ^9-THC concentration in blood” value in data set [1] (12-24 h abstinence, n=30) was 10.5 ± 15 ng/mL. Also, the “baseline Δ^9-THC levels in blood” value in data set [1] (16 of 30 subjects) was “exceeded 5 ng/mL”. Further, the “median baseline Δ^9-THC concentration in blood” value in data set [1] (n=30) worked out at 6.4 ng/mL. The “Presence in exhaled breath, Percent (%) Positivity” value in data set [2] (>60 minutes after smoking) was “(92.5%)”; in data set [2] (≤60 minutes after smoking), “(100%)”. In addition, the “Presence in exhaled breath, positive/evaluable subjects” value in data set [2] (>60 minutes after smoking) is 37/40; in data set [2] (Baseline (Pre-smoking)), 23/34; in data set [2] (≤60 minutes after smoking) it was 40/40. In addition, the “Average Half-Life (minutes ± SD) in breath” value came out at 4.4 ± 2.2 min in data set [3] (0-10 Minutes Post-Smoking); 4.2 ± 2.1 min in data set [3] (0-20 Minutes Post-Smoking); 8.1 ± 2.3 min in data set [3] (20-40 Minutes Post-Smoking); 12.8 ± 8.8 min in data set [3] (20-60 Minutes Post-Smoking); 24.4 ± 25.4 min in data set [3] (40-60 Minutes Post-Smoking); 35.0 ± 41.7 min in data set [3] (60-80 Minutes Post-Smoking). Also, the “Average Half-Life (minutes ± SD) in breath” value in data set [3] (Pre-Smoking) stood at 28.8 ± 28.7 min. In addition, the “Cannabinoid Half-Lives (min) in breath, back-to-back sampling, Average” value in data set [3] (20 Minutes Post-Smoking) was 3.5 min and 2.2 min; in data set [3] (40 Minutes Post-Smoking), 6.1 min. The “Cannabinoid Half-Lives (min) in breath, back-to-back sampling” value in data set [3] (20 Minutes Post-Smoking) is 1.9 min (2×) and 2.3 min and 2.1 min and 2.9 min and 2.8 min and 1.0 min and 1.4 min and 1.6 min and 7.3 min and 3.8 min and 11.8 min and 1.2 min and 0.9 min; in data set [3] (40 Minutes Post-Smoking) it was 2.2 min and 9.9 min and 3.7 min and 5.9 min and 8.6 min. Besides, the “half-lives observed in exhaled breath” value in data set [3] (approximate, summary statement) is reported as “five”. Moreover, the “Analyte Stability (%) at Room Temperature (20-25° C.)” value came out at 91.3% in data set [4] (setting [7]); 81.2% in data set [4] (setting [8]); 82.9% in data set [4] (setting [9]); 66.2% in data set [4] (setting [10]); 55.6% in data set [4] (setting [11]). The “breath/blood Δ^9-THC ratio” value in data set [5] (immediately after smoking) was greater than 2; in data set [5] (within the first hour after smoking) it was no less than 2. The “pre-smoking detection rates of Δ^9-THC in breath” value in data set [6] is on record as 100%.
As to `CCCCCc1cc(O)c(C/C=C(\C)CCC=C(C)C)c(O)c1` [CBG, cannabigerol], the “detection in subjects' blood samples at baseline prior to smoking” value in data set [1] was “detected”. Also, the “Presence in exhaled breath, Percent (%) Positivity” value in data set [2] (>60 minutes after smoking) is on record as “(2.5%)”; in data set [2] (Baseline (Pre-smoking)) it was “(5.9%)”; in data set [2] (≤60 minutes after smoking), “(92.5%)”. For the same compound, the figures for the “Presence in exhaled breath, positive/evaluable subjects” value in data set [2] (>60 minutes after smoking), in data set [2] (Baseline (Pre-smoking)) and in data set [2] (≤60 minutes after smoking) were 1/40, 2/34 and 37/40, respectively. Also, the “Cannabinoid Half-Lives (min) in breath, back-to-back sampling” value in data set [3] (20 Minutes Post-Smoking) was 1.6 min and 1.3 min and 2.6 min and 2.1 min and 0.7 min. For the same compound, the half-life in data set [3] (0-10 Minutes Post-Smoking, read-out: Average Half-Life (minutes ± SD) in breath) was 3.6 ± 2.1 min; in data set [3] (0-20 Minutes Post-Smoking, read-out: Average Half-Life (minutes ± SD) in breath), 3.7 ± 3.1 min; in data set [3] (20 Minutes Post-Smoking, read-out: Cannabinoid Half-Lives (min) in breath, back-to-back sampling, Average), 1.7 min. Also, the “Analyte Stability (%) at Room Temperature (20-25° C.)” value in data set [4] (setting [7]) is reported as 97.5%; in data set [4] (setting [8]), 87.6%; in data set [4] (setting [9]) it was 97.8%; in data set [4] (setting [10]), 75.0%; in data set [4] (setting [11]), 56.5%.
